Results taken from patent US4927919A, “Chartreusin derivatives and salts thereof” (Ishihara Sangyo Kaisha, Ltd., priority 1985, dated 1990).

Experiments:
L-1210 leukemia = conditions: cancer inoculated i.p., drug i.p.; cited from earlier work
[1] = in vivo; cited from earlier work
cancer = conditions: different sites; cited from earlier work
[2] = Intestinal excretion percentage of drugs; type: in vivo; conditions: DDY mice, i.v. 40 mg/kg-b.w., 2 hours
Procedure: Each drug to be tested was administered to DDY mice intravenously at a dose of 40 mg/kg-b.w., and after 2 hours, contents of the small intestine and the large intestine and feces were extracted with a mixed solvent of chloroform and methanol. The extract was concentrated and each compound to be tested was quantitatively determined by high-speed liquid chromatography.
The drug tested was solution which prepared by dissolving the compound No. 17 in a small amount of dimethylacetoamide, followed by adding thereto a small amount of a surface active agent (e.g., Tween-80 ) and physiological saline.

B-16 melanoma [3] = conditions: cancer inoculated i.p., drug i.p.; cited from earlier work
P-388 leukemia cells = assay: Antitumor activity against P-388 leukemia cells (i.p. implanted, i.v. drug); type: in vivo, BDF1 mice; conditions: for response vs control in vivo at 20 mg/kg / response vs control in vivo at 40 mg/kg / response vs control in vivo at 60 mg/kg / response vs control in vivo at 30 mg/kg / response vs control in vivo at 80 mg/kg: Mus musculus, P388, iv, 720 h, read-out: T/C of MST; for response vs control in vivo at 20 mg/kg: dose b: 20 mg/kg/d × 3 (days 1, 5, 9); for response vs control in vivo at 40 mg/kg: dose c: 40 mg/kg/d × 3 (days 1, 5, 9); for response vs control in vivo at 60 mg/kg: dose e: 60 mg/kg/d × 3 (days 1, 5, 9); for response vs control in vivo at 30 mg/kg: dose j: 30 mg/kg/d × 3 (days 1, 5, 9)
Procedure: BDF1 mice were implanted intraperitoneally with P-388 leukemia cells at a rate of 1×10^6 cells/mouse, and each drug to be tested was administered intravenously on the first, fifth and ninth days, or on the first and fifth days after the implantation. […] The T/C (%) was calculated based on the following equation: [formula]
The drugs tested were as follows: solutions prepared by dissolving each of compound Nos. 34, 36 and 43 to 46 in physiological saline; suspension or solutions prepared by dissolving each of compound Nos. 35, 38 and 49 to 55 in dimethylacetamide, followed by adding thereto a small amount of a surface active agent (e.g., Tween-80) and then physiological saline; and suspension or solutions prepared by mixing each of the other compounds and a small amount of a surface active agent (e.g., Tween-80), followed by adding thereto physiological saline.

P-388 leukemia = conditions: cancer inoculated i.p., drug i.p.; cited from earlier work
L-1210 leukemia cells = assay: Antitumor activity against L-1210 leukemia cells (i.p. implanted, i.v. drug); type: in vivo, BDF1 mice; conditions: 30-day observation
Procedure: BDF1 mice were implanted intraperitoneally with L-1210 leukemia cells at a rate of 1×10^5 cells/mouse, and each drug to be tested was administered intravenously on the first, fifth and ninth days after the implantation. […] The T/C (%) was calculated in the same manner as aforementioned (1--1).
The drugs tested were suspensions or solutions which prepared by mixing each compound to be tested and a small amount of a surface active agent (e.g., Tween-80), followed by adding thereto physiological saline.

[4] = Acute toxicity (LD50, single intravenous administration); parameters: species or system day mice; conditions: mouse, in vivo, mice, single i.v.
Source text: In Table 15 are shown acute toxicity values (LD50, mg/kg) in day mice in the case of intravenously administering (once) each of the compounds of this invention in the form of preparations shown in the Preparation Examples shown in Table 16.

B-16 melanoma [5] = assay: Antitumor activity against B-16 melanoma (i.v. drug); type: in vivo, BDF1 mice; conditions: 60-day observation
Procedure: BDF1 mice were implanted intraperitoneally with a B-16 melanoma cell suspension in an amount of 0.5 ml/mouse, and each drug to be tested was administered intravenously on the first, fifth and ninth days after the implantion. […] The T/C (%) was calculated in the same manner as aforementioned (1--1).
The B-16 melanoma cell suspension was prepared as follows. Tumor fragment, maintained by subcutaneous passages in C57BL/6 mice, were aseptically removed and passed through a sterile stainless-steel mesh. Thus obtained tumor was dispersed in a culture medium or physiological saline in an amount of 9 ml per 1 g of tumor.

[6] = i.v., dose f: 80 mg/kg/d × 3 (days 1, 5, 9), 30-day observation

SMILES | LD50 ([4]; Preparation Example 2) | T/C (%) of MST (B-16 melanoma [5]; 60 mg/kg × 3 (days 1, 5, 9)) | response vs control in vivo at 20 mg/kg (P-388 leukemia cells; i.v., 30-day observation) | response vs control in vivo at 40 mg/kg (P-388 leukemia cells; i.v., 30-day observation) | LD50 ([4]; Preparation Example 1) | further results
CO[C@H]1[C@@H](O)[C@@H](C)O[C@H](O[C@H]2[C@H](Oc3cccc4c(O)c5c(=O)oc6ccc(C)c7c(=O)oc(c34)c5c67)O[C@H](C)[C@H](O)[C@@H]2O)[C@@H]1O [Chartreusin, chartreusin] |  |  |  |  |  | effect against L-1210 leukemia (in words) (L-1210 leukemia): effective; biliary excretion relative to absorption to tissues (in words) [1]: biliary excretion of chartreusin essentially has the precedence over absorption thereof to tissues; effect when site of cancer inoculation and site of administration were different (in words) (cancer): not effective at all; Intestinal excretion percentage [(total amount of excretion/dose) × 100] [2]: 37.6%; effect against B-16 melanoma (in words) (B-16 melanoma [3]): effective; T/C (%) (P-388 leukemia cells; comparison, chartreusin suspension in 0.2M Na2HPO4 / N,N-dimethylacetamide (4:1)): 105%; effect against P-388 leukemia (in words) (P-388 leukemia): effective
COC1C(O)C(C)OC(OC2C(Oc3cccc4c(OC(=O)c5cccn5C)c5c(=O)oc6ccc(C)c7c(=O)oc(c34)c5c67)OC(C)C3OC(c4ccccc4)OC32)C1O (stereo not drawn) [Compound 2] | ≥ 60 mg/kg | 141% | 189% | 230% |  | T/C (%) MST (L-1210 leukemia cells; 40 mg/kg × 3 (days 1, 5, 9)): 243%
COC1C(O)C(C)OC(OC2C(Oc3cccc4c(OC(=O)c5ccco5)c5c(=O)oc6ccc(C)c7c(=O)oc(c34)c5c67)OC(C)C3OC(c4ccccc4)OC32)C1O (stereo not drawn) [Compound 6] | ≥ 60 mg/kg | 159% | 199% | 217% |  | 
COC1C(O)C(C)OC(OC2C(Oc3cccc4c(OC(=O)c5cccs5)c5c(=O)oc6ccc(C)c7c(=O)oc(c34)c5c67)OC(C)C3OC(C)(C)OC32)C1O (stereo not drawn) [Compound 10] |  |  |  | 162% |  | T/C (%) MST (L-1210 leukemia cells; 80 mg/kg × 3 (days 1, 5, 9)): 140%; LD50 ([4]; Preparation Example 4): ≥ 80 mg/kg; T/C of MST (P-388 leukemia cells; [6]): 207%
COC1C(O)C(C)OC(OC2C(Oc3cccc4c(OC(=O)c5cccs5)c5c(=O)oc6ccc(C)c7c(=O)oc(c34)c5c67)OC(C)C3OC(c4ccccc4)OC32)C1O (stereo not drawn) [Compound 11, 6-O-(2-thienyl-carbonyl)-3',4'-O-benzylidene-chartreusin] | ≥ 60 mg/kg | 143% | 217% |  |  | 
COC1C(O)C(C)OC(OC2C(Oc3cccc4c(OC(=O)c5c(-c6ccccc6)noc5C)c5c(=O)oc6ccc(C)c7c(=O)oc(c34)c5c67)OC(C)C3OC(c4ccccc4)OC32)C1O (stereo not drawn) [Compound 14, 6-O-{4-(5-methyl-3-phenylisoxazolyl)-carbonyl}-3',4'-O-benzylidene-chartreusin] |  | 143% | 207% | 250% | ≥ 60 mg/kg | T/C (%) MST (L-1210 leukemia cells; 40 mg/kg × 3 (days 1, 5, 9)): 208%
COC1C(O)C(C)OC(OC2C(Oc3cccc4c(OC(=O)c5cc6ccccc6[nH]5)c5c(=O)oc6ccc(C)c7c(=O)oc(c34)c5c67)OC(C)C3OC(c4ccccc4)OC32)C1O (stereo not drawn) [Compound 17, 6-O-(2-indolyl-carbonyl)-3',4'-O-benzylidene-chartreusin] |  | 141% | 199% | 255% | ≥ 60 mg/kg | T/C (%) MST (L-1210 leukemia cells; 40 mg/kg × 3 (days 1, 5, 9)): 181%; Intestinal excretion percentage [(total amount of excretion/dose) × 100] [2]: 5.4%
CCn1cc(C(=O)Oc2c3cccc(OC4OC(C)C5OC(c6ccccc6)OC5C4OC4OC(C)C(O)C(OC)C4O)c3c3oc(=O)c4c(C)ccc5oc(=O)c2c3c54)c(=O)c2ccc(C)nc21 (stereo not drawn) [Compound 33, 6-O-{3-(1,4-dihydro-1-ethyl-7-methyl-4-oxo-1,8-naphthyridinyl)-carbonyl}-3',4'-O-benzylidene-chartreusin] |  |  | 218% | 274% | ≥ 40 mg/kg | T/C (%) of MST (B-16 melanoma [5]; 40 mg/kg × 3 (days 1, 5, 9)): 142%
CCn1cc(C(=O)Oc2c3cccc(OC4OC(C)C5OC(c6ccccc6)OC5C4OC4OC(C)C(O)C(OC)C4O)c3c3oc(=O)c4c(C)ccc5oc(=O)c2c3c54)c(=O)c2cnc(N3CCCC3)nc21 (stereo not drawn) [Compound 105] | ≥ 60 mg/kg |  |  |  |  | response vs control in vivo at 60 mg/kg (P-388 leukemia cells; i.v., 30-day observation): 256%; response vs control in vivo at 30 mg/kg (P-388 leukemia cells; i.v., 30-day observation): 165%
CCn1cc(C(=O)Oc2c3cccc(OC4OC(C)C5OC(c6ccccc6)OC5C4OC4OC(C)C(O)C(OC)C4O)c3c3oc(=O)c4c(C)ccc5oc(=O)c2c3c54)c(=O)c2cnc(N3CCNCC3)nc21 (stereo not drawn) [Compound 106] |  |  |  |  | ≥ 60 mg/kg | response vs control in vivo at 60 mg/kg (P-388 leukemia cells; i.v., 30-day observation): 244%; response vs control in vivo at 30 mg/kg (P-388 leukemia cells; i.v., 30-day observation): 188%
CCn1cc(C(=O)Oc2c3cccc(OC4OC(C)C5OC(C)(C)OC5C4OC4OC(C)C(O)C(OC)C4O)c3c3oc(=O)c4c(C)ccc5oc(=O)c2c3c54)c(=O)c2ccc(C)nc21 (stereo not drawn) [Compound 107] |  |  |  |  |  | LD50 ([4]; Preparation Example 4): ≥ 80 mg/kg; response vs control in vivo at 80 mg/kg (P-388 leukemia cells; [6]): 134%
CCn1cc(C(=O)Oc2c3cccc(OC4OC(C)C5OC(c6ccccc6)OC5C4OC4OC(C)C(O)C(OC)C4O)c3c3oc(=O)c4c(C)ccc5oc(=O)c2c3c54)c(=O)c2ccc(C)nc21 (stereo not drawn) [Compound 108] |  |  |  |  |  | LD50 ([4]; Preparation Example 4): ≥ 80 mg/kg; response vs control in vivo at 80 mg/kg (P-388 leukemia cells; [6]): 158%
